Laboratory results from US20240207454A1, “NEURO-BEHAVIORAL ASSAY FOR PHYSIOLOGICAL EVALUATION OF WATER-SOLUBLE ANESTHETICS” (Northeastern University, priority 2022, published 2024).
Like-named read-outs stand apart in the source and are kept apart here.

Key:
[1] = system: Apteronotus leptorhynchus; assay: Neuro-behavioral assay: effect on EOD frequency; type: in vivo; details: for EOD frequency lower than median baseline frequency immediately after return to isolation tank (range among fish): 2.5% urethane or 0.02% MS-222 immersion until fin and opercular movement ceased; for EOD frequency lower than median baseline frequency immediately after return to isolation tank (range among fish) / EOD frequency lower than median baseline frequency immediately after return to isolation tank (median) / Median EOD frequency change, 30-min interval before vs 15-min interval after start of anesthesia: Median: n=8 fish; for EOD frequency lower than median baseline frequency immediately after return to isolation tank (median): 2.5% urethane or 0.02% MS-222 immersion; for Recovery model parameter a (ratio EOD frequency vs baseline at t=0), estimate / Recovery model parameter b, estimate / Recovery model parameter c, estimate / Recovery model parameter d, estimate: robust nonlinear regression, Equation 1, 2.5% urethane or 0.02% MS-222; for Recovery model (Eq. 3) parameter a: normalized frequency
Description: For the assay, adult brown ghost knifefish (Apteronotus leptorhynchus; Gymnotiformes, Teleostei), with total lengths of approximately 12-15 cm, are used. The fish are imported from their natural habitat in South and Central America.
At least 1 week before using the assay for the first run, the fish is transferred from a community tank to an isolation tank (50 cm×30 cm×30 cm) equipped with aquarium thermostat heaters and air-driven corner filters. The fish is kept in aquarium water prepared by adding a mixture of inorganic salts (81 mmol/L MgSO4·7H2O; 107 mmol/L KCl; 12 mmol/L NaH2PO4·2H2O; 732 mmol/L CaSO4·2H2O) to deionized water until a water conductivity of approximately 150-300 μS/cm is reached. Water temperature, determined during the experiments every 10 min with a calibrated high-precision (accuracy+0.05° C.) digital thermometer, is kept in the range of 25.0-28.0° C. across all assays. Variation is limited to 1.0° C. in an individual assay. A 12:12 h light:dark photoperiod is maintained with a timer. The fish are fed red mosquito larvae daily, after the assay run on that day has been completed.
In each isolation tank, an opaque cylindrical plastic tube (length: 190 mm; inner diameter: 38 mm; outer diameter: 42 mm) provides shelter and is readily accepted by the fish, particularly during the light phase, when individuals of this nocturnal species spend most of the time in shelter places. A pair of stainless-steel electrodes is mounted on the inside of each tube (see section 4.1.2, ‘EOD recording,’ below).
Differential recording of the fish's EOD is done through the pair of stainless-steel electrodes built into the shelter tube (FIG. 1). […] This allows the fish's EOD to be recorded continuously without interruptions. At the same time, mesh size is chosen such that sustained water flow through the tube is ensured. A strip of stainless steel is placed in the tank to serve as a ground electrode.
The signal is AC amplified (gain: 30×; low-pass filter: none; high-pass filter: 200 Hz) and then digitized at a sampling rate of 50 kHz.
The sampled time-voltage data (ti, vi), i=1, . . . , N, are filtered in subsequent, 1-s-long windows using a bandpass filter with frequency band [0.8, 1.2]×f0, where f0 is the fundamental frequency determined from the power spectrum of the signal within the associated time window.
The filtered time series data (ti, Vi), i=1, . . . , N, are further processed to determine the EOD frequency at a higher time resolution. First, tuple j containing the indices of all instants where the filtered signal changes sign to a positive value is determined:
Then, tuple t^+ of time instances when the signal crosses the time axis upwards is calculated using interpolation:
Here M=|j| denotes the number of elements in j (the number of all crossings). Finally, time-frequency pairs (Tk, fk) are computed as
for k=1, . . . , M−m. Here m=10 is the number of averaged time periods used for EOD frequency calculation.
Since the EOD frequency of A. leptorhynchus is temperature dependent, all measured frequencies are adjusted to a reference temperature (arbitrarily chosen to be 26° C.) so that discharge frequencies at different water temperatures can be compared. This adjustment of a frequency f1 (in Hz) measured at a temperature T1 (in ° C.) to the reference temperature T2=26° C. is calculated as
where f2 is the expected frequency at T2 and Q10=1.56, as determined empirically.
The experimental design is outlined in FIG. 2. To determine the baseline EOD frequency, the fish's EOD was recorded for 30 min. Then, the fish was transferred into a glass beaker containing either 2.5% urethane (Acros Organics, New Jersey, USA) or 0.02% MS-222 (Western Chemical, Washington, USA), each dissolved in water from the fish's isolation tank. As a control, the fish was moved into an identical glass beaker containing aquarium water only. […]

[2] = PubChem; cited from earlier work
[3] = system: Apteronotus leptorhynchus; assay: Neuro-behavioral assay: EOD amplitude; type: in vivo
Procedure: Differential recording of the fish's EOD was performed through a pair of stainless-steel electrodes built into the shelter tube (FIG. 1). During the experiment, the open ends of the tube were closed with a course plastic mesh netting to ensure that the fish remained close to the recording electrodes, thereby yielding high-quality recordings. This restraint is minimally invasive, as, particularly during daytime, the fish remain in shelter tubes with open ends for prolonged periods of time, often for several hours. The recorded EOD signal was amplified and digitized following a protocol established previously. To examine the effect of eugenol on EOD frequency and chirping behavior, the following experiments were conducted using 8 fish (FIG. 11): First, the baseline EOD was recorded in the fish's home tank (50 cm×30 cm×30 cm) for 30 min. Then, for the 5-min treatment session, the shelter tube with the fish was transferred to a smaller (experimental) tank (30 cm×20 cm×20 cm) containing either eugenol dissolved in aquarium water at a certain concentration (30 μL/L, 45 μL/L, or 60 μL/L; ‘test condition’) or aquarium water only (‘control condition’). The temperature in the experimental tank was similar to the temperature in the home tank (median difference: ±0.2° C.). Finally, the shelter tube with the fish was returned to the home tank, where recording continued for 180 min. Throughout the 215 min of pre-treatment, treatment, and post-treatment, the recording of the EOD was interrupted only for a few seconds during which the fish was transferred between its home tank and the experimental tank. The order of the four treatment conditions was determined using a randomized complete block design. Each test or control experiment in a given fish was conducted on a different day.

zebrafish (Danio rerio) = details: 60 μL/L eugenol, D. rerio; cited from earlier work
red garra (Garra rufa) = details: G. rufa, cited from earlier work
[4] = target: T1, GABAA receptor subtype α1β2γ2 (Homo sapiens, UniProt P14867+P18507+P47870); details: human embryonic kidney 293 cells expressing α1β2γ2; cited from earlier work
T1 construct: host or cells: human embryonic kidney 293 cells (heterologous expression)

GABAA current = details: rat trigeminal ganglia; cited from earlier work
[5] = system: epileptiform field potentials and spreading depression; details: rat neocortical and hippocampal slices; cited from earlier work

T1 sequence (P14867 28-456): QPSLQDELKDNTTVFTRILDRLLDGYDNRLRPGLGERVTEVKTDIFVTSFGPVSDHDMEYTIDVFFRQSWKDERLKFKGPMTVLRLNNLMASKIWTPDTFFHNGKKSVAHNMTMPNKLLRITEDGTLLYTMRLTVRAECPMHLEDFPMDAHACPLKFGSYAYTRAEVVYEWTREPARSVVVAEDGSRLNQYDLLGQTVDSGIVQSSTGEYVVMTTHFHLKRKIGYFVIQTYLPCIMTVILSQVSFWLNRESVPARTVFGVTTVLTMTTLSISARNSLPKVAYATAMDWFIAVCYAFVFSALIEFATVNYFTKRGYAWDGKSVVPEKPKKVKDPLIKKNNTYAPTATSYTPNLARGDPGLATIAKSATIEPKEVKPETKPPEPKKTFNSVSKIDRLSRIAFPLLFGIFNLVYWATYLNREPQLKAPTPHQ
T1 sequence (P47870 25-512 limits assumed): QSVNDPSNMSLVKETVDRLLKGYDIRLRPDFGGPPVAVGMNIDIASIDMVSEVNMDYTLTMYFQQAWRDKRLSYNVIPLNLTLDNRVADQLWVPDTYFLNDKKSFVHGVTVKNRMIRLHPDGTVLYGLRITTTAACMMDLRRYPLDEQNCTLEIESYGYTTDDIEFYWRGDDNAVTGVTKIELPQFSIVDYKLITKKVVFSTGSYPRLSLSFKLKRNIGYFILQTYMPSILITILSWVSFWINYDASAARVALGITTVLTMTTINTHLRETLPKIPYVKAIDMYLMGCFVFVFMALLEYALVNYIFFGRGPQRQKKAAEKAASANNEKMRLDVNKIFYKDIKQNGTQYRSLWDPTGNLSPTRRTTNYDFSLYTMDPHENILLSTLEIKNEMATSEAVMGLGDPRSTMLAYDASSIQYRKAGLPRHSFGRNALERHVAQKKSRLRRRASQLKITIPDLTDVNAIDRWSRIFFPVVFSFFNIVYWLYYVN
T1 sequence (P18507 40-475): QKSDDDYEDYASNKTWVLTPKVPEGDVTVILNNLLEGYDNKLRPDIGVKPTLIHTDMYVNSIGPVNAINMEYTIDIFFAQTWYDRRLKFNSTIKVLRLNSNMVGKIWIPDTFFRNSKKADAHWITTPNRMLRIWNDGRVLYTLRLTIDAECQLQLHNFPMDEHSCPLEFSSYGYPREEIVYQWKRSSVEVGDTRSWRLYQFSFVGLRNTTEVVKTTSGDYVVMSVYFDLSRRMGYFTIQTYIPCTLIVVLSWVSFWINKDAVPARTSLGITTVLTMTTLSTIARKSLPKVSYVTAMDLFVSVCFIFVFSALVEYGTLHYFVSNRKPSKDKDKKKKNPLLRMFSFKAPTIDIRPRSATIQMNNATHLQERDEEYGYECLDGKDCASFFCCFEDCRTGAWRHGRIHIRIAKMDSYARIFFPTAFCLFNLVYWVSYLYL

CCOC(N)=O [urethane]
EOD frequency lower than median baseline frequency immediately after return to isolation tank (range among fish) [1]: 104-142 Hz
EOD frequency lower than median baseline frequency immediately after return to isolation tank (median) [1]: 133 Hz
EOD frequency drop during first phase of anesthesia ([1]; 2.5% urethane, first phase lasting roughly 30 s): approximately 100 Hz
Recovery model parameter a (ratio EOD frequency vs baseline at t=0), estimate ([1]; 8 fish): 0.8428 1
Recovery model parameter b, estimate ([1]; 8 fish): 21.333 min
Recovery model parameter c, estimate ([1]; 8 fish): 1.0228
Recovery model parameter d, estimate ([1]; 8 fish): -2.8717e-05 min⁻¹
octanol-water partition coefficient log kow [2]: −0.15

C=CCc1ccc(O)c(OC)c1 [eugenol]
Maximum EOD frequency drop vs median baseline frequency (median) ([1]; 60 μL/L eugenol, 5 min, 8 fish): 232 Hz
Maximum EOD frequency drop vs median baseline frequency (range) ([1]; 60 μL/L eugenol, 5 min, 8 fish): 184-277 Hz
Latency until fish started to lower the EOD frequency after transfer into the anesthetic solution ([1]; eugenol 30-60 μL/L): 1 to 2 min
Recovery model (Eq. 3) parameter b ([1]; eugenol 30 μL/L): 1.4568 min
Recovery model (Eq. 3) parameter c ([1]; eugenol 30 μL/L): 1.0089
Recovery model (Eq. 3) parameter d ([1]; eugenol 30 μL/L): -3.2299e-05 min⁻¹
Difference in the largest normalized EOD frequency drops: Median ([1]; eugenol 30 μL/L vs. Control): −0.1650
Median EOD frequency change, 30-min interval before vs 15-min interval after start of anesthesia: Median ([1]; eugenol 30 μL/L, 5 min): −48.18 Hz
Recovery model (Eq. 3) parameter a ([1]; eugenol 30 μL/L): 0.7465 1
Recovery model (Eq. 3) parameter b ([1]; eugenol 45 μL/L): 1.4064 min
Recovery model (Eq. 3) parameter c ([1]; eugenol 45 μL/L): 1.0084
Recovery model (Eq. 3) parameter d ([1]; eugenol 45 μL/L): -3.3821e-05 min⁻¹
Difference in the largest normalized EOD frequency drops: Median ([1]; eugenol 45 μL/L vs. 30 μL/L): −0.0715
Median EOD frequency change, 30-min interval before vs 15-min interval after start of anesthesia: Median ([1]; eugenol 45 μL/L, 5 min): −65.54 Hz
Recovery model (Eq. 3) parameter a ([1]; eugenol 45 μL/L): 0.6344 1
Recovery model (Eq. 3) parameter b ([1]; eugenol 60 μL/L): 1.5816 min
Recovery model (Eq. 3) parameter c ([1]; eugenol 60 μL/L): 1.0131
Recovery model (Eq. 3) parameter d ([1]; eugenol 60 μL/L): -6.2321e-05 min⁻¹
Difference in the largest normalized EOD frequency drops: Median ([1]; eugenol 60 μL/L vs. 45 μL/L): −0.0349
Median EOD frequency change, 30-min interval before vs 15-min interval after start of anesthesia: Median ([1]; eugenol 60 μL/L, 5 min): −88.65 Hz
Recovery model (Eq. 3) parameter a ([1]; eugenol 60 μL/L): 0.5649 1
Fish in which the EOD amplitude collapsed to markedly lower levels ([3]; 60 μL/L eugenol, 5 min): 4 out of 8
Time after end of exposure at which EOD amplitude reached baseline levels ([3]; eugenol, FIG. 19 recording): approximately 6 min
Time after onset of anesthesia at which the fish's movements ceased (jittering of EOD amplitude minimal) ([3]; eugenol, FIG. 19 recording): Approximately 1.5 min
octanol-water partition coefficient log kow [2]: 2.49
Time to a similar stage of anesthesia (zebrafish (Danio rerio)): ≤ 1.5 min
Time to total loss of equilibrium and movement and absence of reaction to external stimuli (red garra (Garra rufa); 25 μL/L eugenol): approximately 3 min
Time to total loss of equilibrium and movement and absence of reaction to external stimuli (red garra (Garra rufa); 50 μL/L eugenol): ~1.5 min
Effect on GABA-induced current [4]: inhibits GABAA current in a reversible, dose-dependent manner
Effect on GABA-induced current (GABAA current): inhibits GABAA current in a reversible, dose-dependent manner
Effect on epileptiform field potentials and spreading depression [5]: reversible and dose-dependent suppression

CCOC(=O)c1cccc(N)c1 [MS-222, 3-aminobenzoic acid ethyl ester methanesulfonate]
EOD frequency lower than median baseline frequency immediately after return to isolation tank (range among fish) [1]: 129-279 Hz
EOD frequency lower than median baseline frequency immediately after return to isolation tank (median) [1]: 168 Hz
Recovery model parameter a (ratio EOD frequency vs baseline at t=0), estimate ([1]; 8 fish): 0.3584 1
Recovery model parameter b, estimate ([1]; 8 fish): 0.52 min
Recovery model parameter c, estimate ([1]; 8 fish): 1.0024
Recovery model parameter d, estimate ([1]; 8 fish): -9.0311e-06 min⁻¹
